Data published in ChEMBL document CHEMBL4732096, “Design, synthesis and evaluation of calix[4]arene-based carbonyl amide derivatives with antitumor activities” (Eur J Med Chem, 2021).
Activity calls are given as the source filed them. The calls are words filed in the database; no cut-off is given here.

Assays:
MDA-MB-231 [1] = experiment: Induction of apoptosis in human MDA-MB-231 cells assessed as increase in caspase-3 activation at 0.4 to 10 uM measured after 48 hrs by Western blot analysis; format: functional, cell-based; conditions: dose 0.4-10 µM
MDA-MB-231 [2] = experiment: Potency index, ratio of IC50 of CLX-4 to IC50 of compound for antiproliferative activity against human MDA-MB-231 cells assessed as inhibition of cell growth measured after 72 hrs by MTT assay; format: functional
MDA-MB-231 [3] = experiment: Induction of apoptosis in human MDA-MB-231 cells assessed as early apoptotic cells at 0.2 uM measured after 48 hrs by Annexin V-FITC/propidium iodide staining based flow cytometry (reference value: 1.03 %); format: functional
[4] = Cytotoxicity against HUVEC cells assessed as inhibition of cell growth at 10 uM measured after 72 hrs by MTT assay; format: cell-based; conditions: human
HepG2 = experiment: Antiproliferative activity against human HepG2 cells assessed as inhibition of cell growth at 10 uM measured after 72 hrs by MTT assay relative to control; format: functional
MDA-MB-231 [5] = experiment: Antimigratory activity in human MDA-MB-231 cells assessed as cell migration at 8 uM measured after 48 hrs by wound healing assay (reference value: 67.4 %); format: functional
MDA-MB-231 [6] = experiment: Induction of cell cycle arrest in human MDA-MB-231 cells assessed as decrease in CyclinD1 expression at 0.4 to 10 uM measured after 48 hrs by Western blot analysis; format: functional, cell-based; conditions: dose 0.4-10 µM
A549 [7] = experiment: Antiproliferative activity against human A549 cells assessed as inhibition of cell growth at 10 uM measured after 72 hrs by MTT assay relative to control; format: functional
MCF7 = experiment: Antiproliferative activity against human MCF7 cells assessed as inhibition of cell growth at 10 uM measured after 72 hrs by MTT assay relative to control; format: functional
MDA-MB-231 [8] = experiment: Induction of apoptosis in human MDA-MB-231 cells assessed as increase in apoptotic bodies at 0.2 to 20 uM measured after 48 hrs by Hoechst 33342 staining based fluorescence microscopic analysis; format: functional, cell-based; conditions: dose 0.2-20 µM
MDA-MB-231 [9] = experiment: Induction of apoptosis in human MDA-MB-231 cells assessed as necrotic cells at 0.2 uM measured after 48 hrs by Annexin V-FITC/propidium iodide staining based flow cytometry (reference value: 0.36 %); format: functional
MDA-MB-231 [10] = experiment: Induction of apoptosis in human MDA-MB-231 cells assessed as nuclear rupture at 0.2 to 20 uM measured after 48 hrs by Hoechst 33342 staining based fluorescence microscopic analysis; format: functional, cell-based; conditions: dose 0.2-20 µM
A549 [11] = experiment: Potency index, ratio of IC50 of CLX-4 to IC50 of compound for antiproliferative activity against human A549 cells assessed as inhibition of cell growth measured after 72 hrs by MTT assay; format: functional
MDA-MB-231 [12] = experiment: Induction of morphological changes in human MDA-MB-231 cells assessed as rounded cell morphology at 10 to 100 uM by optical inverted microscopic analysis; format: functional, cell-based; conditions: dose 10-100 µM
MDA-MB-231 [13] = experiment: Induction of apoptosis in human MDA-MB-231 cells assessed as increase in Bax expression at 0.4 to 10 uM measured after 48 hrs by Western blot analysis; format: functional, cell-based; conditions: dose 0.4-10 µM
A549 [14] = experiment: Antiproliferative activity against human A549 cells assessed as inhibition of cell growth measured after 72 hrs by MTT assay; format: functional, cell-based; conditions: A549, 72 h
MDA-MB-231 [15] = experiment: Antiproliferative activity against human MDA-MB-231 cells assessed as inhibition of cell growth measured after 72 hrs by MTT assay; format: functional, cell-based; conditions: MDA-MB-231, 72 h
MDA-MB-231 [16] = experiment: Induction of apoptosis in human MDA-MB-231 cells assessed as early apoptotic cells at 2 uM measured after 48 hrs by Annexin V-FITC/propidium iodide staining based flow cytometry (reference value: 1.03 %); format: functional
MDA-MB-231 [17] = experiment: Induction of cell cycle arrest in human MDA-MB-231 cells assessed as decrease in CDK4 expression at 0.4 to 10 uM measured after 48 hrs by Western blot analysis; format: functional, cell-based; conditions: dose 0.4-10 µM
MDA-MB-231 [18] = experiment: Induction of apoptosis in human MDA-MB-231 cells assessed as increase in fluorescence intensity at 0.2 to 20 uM measured after 48 hrs by Hoechst 33342 staining based fluorescence microscopic analysis; format: functional, cell-based; conditions: dose 0.2-20 µM
MDA-MB-231 [19] = experiment: Induction of apoptosis in human MDA-MB-231 cells assessed as early apoptotic cells at 20 uM measured after 48 hrs by Annexin V-FITC/propidium iodide staining based flow cytometry (reference value: 1.03 %); format: functional
MDA-MB-231 [20] = experiment: Induction of apoptosis in human MDA-MB-231 cells assessed as viable cells at 20 uM measured after 48 hrs by Annexin V-FITC/propidium iodide staining based flow cytometry (reference value: 94.1 %); format: functional; conditions: read-out: Activity
MDA-MB-231 [21] = experiment: Antimigratory activity in human MDA-MB-231 cells assessed as reduction in cell migration measured after 48 hrs by wound healing assay; format: functional, cell-based
MDA-MB-231 [22] = experiment: Induction of apoptosis in human MDA-MB-231 cells assessed as viable cells at 2 uM measured after 48 hrs by Annexin V-FITC/propidium iodide staining based flow cytometry (reference value: 94.1 %); format: functional; conditions: read-out: Activity
MDA-MB-231 [23] = experiment: Induction of apoptosis in human MDA-MB-231 cells assessed as necrotic cells at 20 uM measured after 48 hrs by Annexin V-FITC/propidium iodide staining based flow cytometry (reference value: 0.36 %); format: functional
MDA-MB-231 [24] = experiment: Antimigratory activity in human MDA-MB-231 cells assessed as cell migration at 4 uM measured after 48 hrs by wound healing assay (reference value: 67.4 %); format: functional
MDA-MB-231 [25] = experiment: Antiproliferative activity against human MDA-MB-231 cells assessed as inhibition of cell growth at 10 uM measured after 72 hrs by MTT assay relative to control; format: functional
MDA-MB-231 [26] = experiment: Induction of apoptosis in human MDA-MB-231 cells assessed as increase in ratio of Bax/Bcl-2 at 0.4 to 10 uM measured after 48 hrs by Western blot analysis; format: functional, cell-based; conditions: dose 0.4-10 µM
MDA-MB-231 [27] = experiment: Induction of apoptosis in human MDA-MB-231 cells assessed as late apoptotic cells at 0.2 uM measured after 48 hrs by Annexin V-FITC/propidium iodide staining based flow cytometry (reference value: 4.5 %); format: functional
MDA-MB-231 [28] = experiment: Induction of apoptosis in human MDA-MB-231 cells assessed as necrotic cells at 2 uM measured after 48 hrs by Annexin V-FITC/propidium iodide staining based flow cytometry (reference value: 0.36 %); format: functional
MDA-MB-231 [29] = experiment: Induction of apoptosis in human MDA-MB-231 cells assessed as nuclear condensation at 0.2 to 20 uM measured after 48 hrs by Hoechst 33342 staining based fluorescence microscopic analysis; format: functional, cell-based; conditions: dose 0.2-20 µM
MDA-MB-231 [30] = experiment: Induction of apoptosis in human MDA-MB-231 cells assessed as late apoptotic cells at 20 uM measured after 48 hrs by Annexin V-FITC/propidium iodide staining based flow cytometry (reference value: 4.5 %); format: functional
MDA-MB-231 [31] = experiment: Induction of morphological changes in human MDA-MB-231 cells assessed as cell shrinkage at 10 to 100 uM by optical inverted microscopic analysis; format: functional, cell-based; conditions: dose 10-100 µM
MDA-MB-231 [32] = experiment: Antimigratory activity in human MDA-MB-231 cells assessed as cell migration at 2 uM measured after 48 hrs by wound healing assay (reference value: 67.4 %); format: functional
MDA-MB-231 [33] = experiment: Induction of cell cycle arrest in human MDA-MB-231 cells assessed as increase in accumulation in G0/G1 phase at 0.2 to 20 uM measured after 48 hrs by propidium iodide staining based flow cytometry; format: functional; conditions: dose 0.2-20 µM
MDA-MB-231 [34] = experiment: Induction of morphological changes in human MDA-MB-231 cells assessed as shedding of cell morphology at 10 to 100 uM by optical inverted microscopic analysis; format: functional, cell-based; conditions: dose 10-100 µM
MDA-MB-231 [35] = experiment: Induction of apoptosis in human MDA-MB-231 cells assessed as late apoptotic cells at 2 uM measured after 48 hrs by Annexin V-FITC/propidium iodide staining based flow cytometry (reference value: 4.5 %); format: functional
MDA-MB-231 [36] = experiment: Induction of apoptosis in human MDA-MB-231 cells assessed as viable cells at 0.2 uM measured after 48 hrs by Annexin V-FITC/propidium iodide staining based flow cytometry (reference value: 94.1 %); format: functional; conditions: read-out: Activity
MDA-MB-231 [37] = experiment: Induction of apoptosis in human MDA-MB-231 cells assessed as increase in cleaved PARP level at 0.4 to 10 uM measured after 48 hrs by Western blot analysis; format: functional, cell-based; conditions: dose 0.4-10 µM
HT-29 = experiment: Antiproliferative activity against human HT-29 cells assessed as inhibition of cell growth at 10 uM measured after 72 hrs by MTT assay relative to control; format: functional
MDA-MB-231 [38] = experiment: Induction of apoptosis in human MDA-MB-231 cells assessed as decrease in Bcl-2 expression at 0.4 to 10 uM measured after 48 hrs by Western blot analysis; format: functional, cell-based; conditions: dose 0.4-10 µM

CCC(Oc1c2cc(C(C)(C)C)cc1Cc1cc(C(C)(C)C)cc(c1O)Cc1cc(C(C)(C)C)cc(c1OC(CC)C(=O)N(CCO)CCO)Cc1cc(C(C)(C)C)cc(c1O)C2)C(=O)N(CCO)CCO (configuration not stated)
Activity (MDA-MB-231 [1]): Active
Ratio IC50 (MDA-MB-231 [2]): 6.8
Activity (MDA-MB-231 [3]): 12.3%
inhibition at 72 h, 10 µM [4]: 9.6%
inhibition at 10 µM (HepG2): 89.6%
Activity (MDA-MB-231 [5]): 84%
Activity (MDA-MB-231 [6]): Active
inhibition at 10 µM (A549 [7]): 90.7%
inhibition at 10 µM (MCF7): 90.4%
Activity (MDA-MB-231 [8]): Active
Activity (MDA-MB-231 [9]): 1.13%
Activity (MDA-MB-231 [10]): Active
Ratio IC50 (A549 [11]): 3.2
Activity (MDA-MB-231 [12]): Active
Activity (MDA-MB-231 [13]): Active
IC50 (A549 [14]): 1.2 µM
IC50 (MDA-MB-231 [15]): 0.66 µM
Activity (MDA-MB-231 [16]): 22.1%
Activity (MDA-MB-231 [17]): Active
Activity (MDA-MB-231 [18]): Active
Activity (MDA-MB-231 [19]): 19.2%
viability at 20 µM (MDA-MB-231 [20]): 39%
Activity (MDA-MB-231 [21]): Dose-dependent effect
viability at 2 µM (MDA-MB-231 [22]): 56.9%
Activity (MDA-MB-231 [23]): 1.37%
Activity (MDA-MB-231 [24]): 79%
inhibition at 10 µM (MDA-MB-231 [25]): 88.2%
Activity (MDA-MB-231 [26]): Active
Activity (MDA-MB-231 [27]): 21.2%
Activity (MDA-MB-231 [28]): 0.34%
Activity (MDA-MB-231 [29]): Active
Activity (MDA-MB-231 [30]): 40.4%
Activity (MDA-MB-231 [31]): Active
Activity (MDA-MB-231 [32]): 76.9%
Activity (MDA-MB-231 [33]): Active
Activity (MDA-MB-231 [34]): Active
Activity (MDA-MB-231 [35]): 20.7%
viability at 0.2 µM (MDA-MB-231 [36]): 65.5%
Activity (MDA-MB-231 [37]): Active
inhibition at 10 µM (HT-29): 64.2%
Activity (MDA-MB-231 [38]): Active

CC(C)(C)c1cc2c(O)c(c1)Cc1cc(C(C)(C)C)cc(c1OCCCCCC(=O)NCCCCCO)Cc1cc(C(C)(C)C)cc(c1O)Cc1cc(C(C)(C)C)cc(c1OCCCCCC(=O)NCCCCCO)C2
inhibition at 72 h, 10 µM [4]: < 0%
inhibition at 10 µM (HepG2): 21.9%
inhibition at 10 µM (A549 [7]): 46.1%
inhibition at 10 µM (MCF7): < 0%
IC50 (A549 [14]): > 100 µM
IC50 (MDA-MB-231 [15]): 97.6 µM
inhibition at 10 µM (MDA-MB-231 [25]): 31.2%
inhibition at 10 µM (HT-29): 21.2%

CC(C)(C)c1cc2c(O)c(c1)Cc1cc(C(C)(C)C)cc(c1OC/C=C/C(=O)NCCCCCO)Cc1cc(C(C)(C)C)cc(c1O)Cc1cc(C(C)(C)C)cc(c1OC/C=C/C(=O)NCCCCCO)C2
inhibition at 72 h, 10 µM [4]: 23.8%
inhibition at 10 µM (HepG2): 11.8%
inhibition at 10 µM (A549 [7]): 37.6%
inhibition at 10 µM (MCF7): < 0%
IC50 (A549 [14]): > 100 µM
IC50 (MDA-MB-231 [15]): 94.3 µM
inhibition at 10 µM (MDA-MB-231 [25]): 39.5%
inhibition at 10 µM (HT-29): 23.9%
